Target: KRas (Homo sapiens, UniProt P01116, G12C)
Test: KRas degradation in NCI-H2030 cells by Western blot, normalized to GAPDH (data of Table 14)
Assay type: cell-based
Parameters: host or cells: NCI-H2030
Conditions: for Dmax: NCI-H2030
Experimental: Cell Lines, Antibodies, and Reagents. NCI-H2030 (CRL-5914) and SW1573 (CRL-2170) cells were purchased from ATCC. Both cell lines are homozygous for the G12C mutation in KRas. NCI-H2030 cells were cultured in RPMI-1640 medium containing 1% penicillin-streptomycin and 10% fetal bovine serum (FBS). SW1573 cells were cultured in DMEM containing 1% penicillin-streptomycin and 10% FBS. The KRas detection antibody (Cat. No. LS-C175665) was purchased from LifeSpan Biosciences and was used at a dilution of 1:2000. GAPDH was detected using an antibody purchased from Cell Signaling Technology (Cat. No. 5174) and was diluted 1:3000. Secondary anti-mouse and anti-rabbit detection antibodies were purchased from Cell Signaling Technology (Cat. Nos. 7076 and 7074, respectively).
Compound Treatment and Western Blotting of the Data of Table 14. Either NCI-H2030 or SW1573 cells were plated in 12-well plates and allowed to adhere overnight at 37° C. in an incubator containing 5% CO2. The following day, the medium was replaced with the appropriate medium lacking FBS to induce starvation. Cells were returned to the incubator for an additional 24 hours following media exchange. […] Cells were treated with VHL-based compounds for 24 hours and all other compounds for 72 hours. Following treatment, cells were lysed in RIPA buffer (Thermo Fisher Cat. No. 89900) containing phosphatase (Thermo Fisher Cat. No. 1861277) and protease (Thermo Fisher Cat. No. 78429) inhibitor cocktails. Lysates were cleared at 13,000 rpm for 15 minutes and supernatants were assayed for total protein concentration using the Pierce BCA assay system (Thermo Fisher Cat. No. 23225). For each sample, 10 μg total protein was resolved on a 12% Bis-Tris gel and then transferred to a nitrocellulose membrane. After blocking in 3% BSA in TBST (Tris-buffered Saline with 0.1% Tween-20) for 1 hour at room temperature, membranes were probed with the primary antibody (LS Bio Cat. No. LS-C175665) overnight at 4° C. After incubation with the secondary antibody, the following day membranes were visualized using the SuperSignal™ West Femto substrate (Thermo Fisher Cat. No. 34095). The KRas signal in each lane was normalized to GAPDH and percent degradation was either estimated as less than 25% by visual inspection (C in Table 13) or quantitated relative to the DMSO control lane using BIO-RAD Image Lab 5.2.1, and all data was plotted using GraphPad PRISM 6.07.
DC50 is the half-maximal degradation concentration—i.e., the concentration at which 50% degradation is observed. DMax is the maximum degradation efficacy is achieved—i.e., the maximal degradation observed) degradation data.

Structure (SMILES) | Percent Degradation at Indicated Concentration (μM) (H2030, 0.3 μM) | Percent Degradation at Indicated Concentration (μM) (H2030, 1 μM) | Percent Degradation at Indicated Concentration (μM) (H2030, 3 μM) | Dmax | Percent Degradation at Indicated Concentration (μM): 0.3 (H2030 cells, 0.3 μM) | Percent Degradation at Indicated Concentration (μM): 1 (H2030 cells, 1 μM) | Percent Degradation at Indicated Concentration (μM): 3 (H2030 cells, 3 μM) | Dmax (H2030 cells) | further results
C=CC(=O)N1CCN(c2nc(NCCC(=O)N(C)CCOCCOCCOCC(=O)N[C@H](C(=O)N3C[C@H](O)C[C@H]3C(=O)N[C@@H](C)c3ccc(-c4scnc4C)cc3)C(C)(C)C)nc3c(F)c(-c4cc(O)cc5ccccc45)c(Cl)cc23)CC1 [compound 193, (2S,4R)-1-((2S)-18-((4-(4-acryloylpiperazin-1-yl)-6-chloro-8-fluoro-7-(3-hydroxynaphthalen-1-yl)quinazolin-2-yl)amino)-2-(tert-butyl)-15-methyl-4,16-dioxo-6,9,12-trioxa-3,15-diazaoctadecanoyl)-4-hydroxy-N-((S)-1-(4-(4-methylthiazol-5-yl)phenyl)ethyl)pyrrolidine-2-carboxamide] | – | – | – | – | C (C ≤ 35) | C (C ≤ 35) | C (C ≤ 35) | ≤ 35% | –
C=CC(=O)N1CCN(c2nc(NCCC(=O)N(C)CCOCCOCCOCCOc3cc(-c4scnc4C)ccc3CNC(=O)[C@@H]3C[C@@H](O)CN3C(=O)[C@H](c3cc(C)no3)C(C)C)nc3c(F)c(-c4c(O)cccc4F)c(Cl)cc23)CC1 (atropisomer, axis not shown) [compound 131, (2S,4R)-N-(2-((15-(((S)-4-(4-acryloylpiperazin-1-yl)-6-chloro-8-fluoro-7-(2-fluoro-6-hydroxyphenyl)quinazolin-2-yl)amino)-12-methyl-13-oxo-3,6,9-trioxa-12-azapentadecyl)oxy)-4-(4-methylthiazol-5-yl)benzyl)-4-hydroxy-1-((S)-3-methyl-2-(3-methylisoxazol-5-yl)butanoyl)pyrrolidine-2-carboxamide] | C (Percent Degradation: C ≤ 35) | C (Percent Degradation: C ≤ 35) | C (Percent Degradation: C ≤ 35) | ≤ 35% | – | – | – | – | –
CN(CCOCCOCCOc1ccc2c(c1)C(=O)N(C1CCC(=O)NC1=O)C2=O)C(=O)CCNc1nc(N2CCN(C(=O)C(O)O)CC2)c2cc(Cl)c(-c3c(O)cccc3F)c(F)c2n1 [compound 151, 3-(((S)-6-chloro-4-(4-(2,2-dihydroxyacetyl)piperazin-1-yl)-8-fluoro-7-(2-fluoro-6-hydroxyphenyl)quinazolin-2-yl)amino)-N-(2-(2-(2-((2-(2,6-dioxopiperidin-3-yl)-1,3-dioxoisoindolin-5-yl)oxy)ethoxy)ethoxy)ethyl)-N-methylpropanamide] | – | – | – | – | – | – | – | – | Percent Degradation at Indicated Concentration (μM) (H2030 cells, 3 μM): C (Percent Degradation: C ≤ 35)
C=CC(=O)N1CCN(c2nc(NCCC(=O)N(C)CCOCCNc3cccc4c3C(=O)N(C3CCC(=O)NC3=O)C4=O)nc3c(F)c(-c4c(O)cccc4F)c(Cl)cc23)CC1 [compound 109, 3-(((S)-4-(4-acryloylpiperazin-1-yl)-6-chloro-8-fluoro-7-(2-fluoro-6-hydroxyphenyl)quinazolin-2-yl)amino)-N-(2-(2-((2-(2,6-dioxopiperidin-3-yl)-1,3-dioxoisoindolin-4-yl)amino)ethoxy)ethyl)-N-methylpropanamide] | C (Percent Degradation: C ≤ 35) | C (Percent Degradation: C ≤ 35) | C (Percent Degradation: C ≤ 35) | ≤ 35% | – | – | – | – | –
Cc1ncsc1-c1ccc([C@H](C)NC(=O)[C@@H]2C[C@@H](O)CN2C(=O)[C@@H](NC(=O)COCCOCCN(C)C(=O)CCNc2nc(N3CCN(C(N)=O)CC3)c3cc(Cl)c(-c4cc(O)cc5ccccc45)c(F)c3n2)C(C)(C)C)cc1 [compound 182, 4-(6-chloro-8-fluoro-2-(((S)-14-((2S,4R)-4-hydroxy-2-(((S)-1-(4-(4-methylthiazol-5-yl)phenyl)ethyl)carbamoyl)pyrrolidine-1-carbonyl)-4,15,15-trimethyl-3,12-dioxo-7,10-dioxa-4,13-diazahexadecyl)amino)-7-(3-hydroxynaphthalen-1-yl)quinazolin-4-yl)piperazine-1-carboxamide] | C (Percent Degradation: C ≤ 35) | C (Percent Degradation: C ≤ 35) | C (Percent Degradation: C ≤ 35) | ≤ 35% | – | – | – | – | –
C=CC(=O)N1CCN(c2nc(O[C@H](C)CN3CCC(OCCOCCOCCNc4cccc5c4C(=O)N(C4CCC(=O)NC4=O)C5=O)CC3)nc3c2CCN(c2cc(O)cc4ccccc24)C3)CC1 (stereo partly drawn) [compound 413, 4-((2-(2-(2-((1-((R)-2-((4-(4-acryloylpiperazin-1-yl)-7-(3-hydroxynaphthalen-1-yl)-5,6,7,8-tetrahydropyrido[3,4-d]pyrimidin-2-yl)oxy)propyl)piperidin-4-yl)oxy)ethoxy)ethoxy)ethyl)amino)-2-(2,6-dioxopiperidin-3-yl)isoindoline-1,3-dione] | – | – | – | – | – | – | – | – | Percent Degradation at Indicated Concentration (μM) (H2030 cells, 0.3 μM): C (Percent Degradation: C ≤ 35); Percent Degradation at Indicated Concentration (μM) (H2030 cells, 1 μM): C (Percent Degradation: C ≤ 35); Percent Degradation at Indicated Concentration (μM) (H2030 cells, 3 μM): C (Percent Degradation: C ≤ 35)

Further lines, with some results ahead:

Percent Degradation at Indicated Concentration (μM) (H2030, 0.3 μM) | Percent Degradation at Indicated Concentration (μM) (H2030, 1 μM) | Percent Degradation at Indicated Concentration (μM) (H2030, 3 μM) | Dmax | Percent Degradation at Indicated Concentration (μM): 0.3 (H2030 cells, 0.3 μM) | Percent Degradation at Indicated Concentration (μM): 1 (H2030 cells, 1 μM) | Percent Degradation at Indicated Concentration (μM): 3 (H2030 cells, 3 μM) | Dmax (H2030 cells) | Structure (SMILES) | further results
C (Percent Degradation: C ≤ 35) | C (Percent Degradation: C ≤ 35) | C (Percent Degradation: C ≤ 35) | ≤ 35% | – | – | – | – | C=CC(=O)N1CCN(c2nc(NCCC(=O)N(C)CCOCCOc3ccc4c(c3)CN(C3CCC(=O)NC3=O)C4=O)nc3c(F)c(-c4c(O)cccc4F)c(Cl)cc23)CC1 [compound 89, 3-((4-(4-acryloylpiperazin-1-yl)-6-chloro-8-fluoro-7-((S)-2-fluoro-6-hydroxyphenyl)quinazolin-2-yl)amino)-N-(2-(2-((2-(2,6-dioxopiperidin-3-yl)-1-oxoisoindolin-5-yl)oxy)ethoxy)ethyl)-N-methylpropanamide] | –
– | – | C (Percent Degradation: C ≤ 35) | – | – | – | – | – | C=CC(=O)N1CCN(c2nc(NCCC(=O)N(C)CCNc3cccc4c3C(=O)N(C3CCC(=O)NC3=O)C4=O)nc3c(F)c(-c4c(O)cccc4F)c(Cl)cc23)CC1 [compound 107, 3-(((S)-4-(4-acryloylpiperazin-1-yl)-6-chloro-8-fluoro-7-(2-fluoro-6-hydroxyphenyl)quinazolin-2-yl)amino)-N-(2-((2-(2,6-dioxopiperidin-3-yl)-1,3-dioxoisoindolin-4-yl)amino)ethyl)-N-methylpropanamide] | –
– | – | – | – | C (C ≤ 35) | C (C ≤ 35) | C (C ≤ 35) | ≤ 35% | CCC(=O)N1CCN(c2nc(NCCC(=O)N(C)CCOCCOCCOCCOc3cc(-c4scnc4C)ccc3CNC(=O)[C@@H]3C[C@@H](O)CN3C(=O)[C@@H](c3cc(C)no3)C(C)C)nc3c(F)c(-c4cc(O)cc5ccccc45)c(Cl)cc23)CC1 [compound 334, (2S,4R)-N-(2-((15-((6-chloro-8-fluoro-7-(3-hydroxynaphthalen-1-yl)-4-(4-propionylpiperazin-1-yl)quinazolin-2-yl)amino)-12-methyl-13-oxo-3,6,9-trioxa-12-azapentadecyl)oxy)-4-(4-methylthiazol-5-yl)benzyl)-4-hydroxy-1-((R)-3-methyl-2-(3-methylisoxazol-5-yl)butanoyl)pyrrolidine-2-carboxamide] | –
– | – | – | – | C (C ≤ 35) | C (C ≤ 35) | C (C ≤ 35) | ≤ 35% | CCC(=O)N1CCN(c2nc(NCCC(=O)N(C)CCOCCOCCOCCOCCOCC(=O)N[C@H](C(=O)N3C[C@H](O)C[C@H]3C(=O)N[C@@H](C)c3ccc(-c4scnc4C)cc3)C(C)(C)C)nc3c(F)c(-c4cc(O)cc5ccccc45)c(Cl)cc23)CC1 [compound 190, (2S,4R)-1-((2S)-2-(tert-butyl)-24-((6-chloro-8-fluoro-7-(3-hydroxynaphthalen-1-yl)-4-(4-propionylpiperazin-1-yl)quinazolin-2-yl)amino)-21-methyl-4,22-dioxo-6,9,12,15,18-pentaoxa-3,21-diazatetracosanoyl)-4-hydroxy-N-((S)-1-(4-(4-methylthiazol-5-yl)phenyl)ethyl)pyrrolidine-2-carboxamide] | –

Reference: patent US12552783B2, “Modulators of proteolysis and associated methods of use” (Arvinas Operations, Inc., priority 2018, dated 2026)
